Laboratory results taken from PubChem BioAssay AID2060513 (Molecular Pharmacology Branch, DTP, NCI, 2025).

System: 299254-011-R-J1-PDC complex spheroids viability
Assay: Anticancer human tumor 299254-011-R-J1-PDC patient-derived melanoma cell line growth inhibition [GQUAD]
Conditions: for IC50: curve of first compound; for viability, T/C: stronger effect = lower value
In short: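 Multi-cell-type spheroids of tumor cells with HUVEC and mesenchymal stem cells, treated with drug combinations. Concentrations descend in half-log steps from near clinical Cmax, or from 10 microM where Cmax is unknown; viability read-out.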

[1] = second compound 0.0316 µM, first compound 0.0316 µM
[2] = second compound 0.0316 µM, first compound 0.1 µM
[3] = second compound 0.0316 µM, first compound 0.316 µM
[4] = second compound 0.0316 µM, first compound 1 µM
[5] = second compound 0.0316 µM, first compound 3.16 µM
[6] = second compound 0.0316 µM, first compound 10 µM
[7] = second compound 0.1 µM, first compound 0.0316 µM
[8] = second compound 0.1 µM, first compound 0.1 µM
[9] = second compound 0.1 µM, first compound 0.316 µM
[10] = second compound 0.1 µM, first compound 1 µM
[11] = second compound 0.1 µM, first compound 3.16 µM
[12] = second compound 0.1 µM, first compound 10 µM
[13] = second compound 0.316 µM, first compound 0.0316 µM
[14] = second compound 0.316 µM, first compound 0.1 µM
[15] = second compound 0.316 µM, first compound 0.316 µM
[16] = second compound 0.316 µM, first compound 1 µM
[17] = second compound 0.316 µM, first compound 3.16 µM
[18] = second compound 0.316 µM, first compound 10 µM
[19] = second compound 1 µM, first compound 0.0316 µM
[20] = second compound 1 µM, first compound 0.1 µM
[21] = second compound 1 µM, first compound 0.316 µM
[22] = second compound 1 µM, first compound 1 µM
[23] = second compound 1 µM, first compound 3.16 µM
[24] = second compound 1 µM, first compound 10 µM
[25] = second compound 3.16 µM, first compound 0.0316 µM
[26] = second compound 3.16 µM, first compound 0.1 µM
[27] = second compound 3.16 µM, first compound 0.316 µM
[28] = second compound 3.16 µM, first compound 1 µM
[29] = second compound 3.16 µM, first compound 3.16 µM
[30] = second compound 3.16 µM, first compound 10 µM
[31] = second compound 10 µM, first compound 0.0316 µM
[32] = second compound 10 µM, first compound 0.1 µM
[33] = second compound 10 µM, first compound 0.316 µM
[34] = second compound 10 µM, first compound 1 µM
[35] = second compound 10 µM, first compound 3.16 µM
[36] = second compound 10 µM, first compound 10 µM
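Further: spheroids exposed to the agents for seven days before readout.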
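Wherever viability, T/C is given: percent viability relative to DMSO vehicle control wells = 100%.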

CC1COCCN1c1cc(C2(O)CC3CCC(C2)O3)c2cnn(-c3ccn[nH]3)c2n1 (stereo unspecified) + CN(C)c1ccc(Nc2c3ccc(NC(=O)CCN4CCCC4)cc3nc3cc(NC(=O)CCN4CCCC4)ccc23)cc1
IC50 (second compound 0.0316 µM): 0.14 µM | IC50 (second compound 0.1 µM): 0.0998 µM | IC50 (second compound 0.316 µM): 0.18 µM | IC50 (second compound 1 µM): 0.137 µM | IC50 (second compound 3.16 µM): 0.147 µM | IC50 (second compound 10 µM): 0.117 µM | viability, T/C [1]: 77.1% | viability, T/C [2]: 60.4% | viability, T/C [3]: 25.2% | viability, T/C [4]: 18% | viability, T/C [5]: 13.7% | viability, T/C [6]: 6.37% | viability, T/C [7]: 87% | viability, T/C [8]: 51.1% | viability, T/C [9]: 24.2% | viability, T/C [10]: 17.4% | viability, T/C [11]: 12.4% | viability, T/C [12]: 5.43% | viability, T/C [13]: 82.9% | viability, T/C [14]: 73% | viability, T/C [15]: 27.6% | viability, T/C [16]: 16.7% | viability, T/C [17]: 9.78% | viability, T/C [18]: 5.4% | viability, T/C [19]: 93.8% | viability, T/C [20]: 59.3% | viability, T/C [21]: 25.9% | viability, T/C [22]: 17.8% | viability, T/C [23]: 12.5% | viability, T/C [24]: 5.02% | viability, T/C [25]: 86.8% | viability, T/C [26]: 61% | viability, T/C [27]: 27.7% | viability, T/C [28]: 19.2% | viability, T/C [29]: 14% | viability, T/C [30]: 6.53% | viability, T/C [31]: 98.5% | viability, T/C [32]: 54% | viability, T/C [33]: 25.9% | viability, T/C [34]: 13.8% | viability, T/C [35]: 15.2% | viability, T/C [36]: 7.27%

O=c1[nH]cc(F)c(=O)[nH]1 + CN(C)c1ccc(Nc2c3ccc(NC(=O)CCN4CCCC4)cc3nc3cc(NC(=O)CCN4CCCC4)ccc23)cc1
IC50 (second compound 0.0316 µM): > 10 µM | IC50 (second compound 0.1 µM): > 10 µM | IC50 (second compound 0.316 µM): > 10 µM | IC50 (second compound 1 µM): > 10 µM | IC50 (second compound 3.16 µM): > 10 µM | IC50 (second compound 10 µM): > 10 µM | viability, T/C [1]: 93.3% | viability, T/C [2]: 106% | viability, T/C [3]: 105% | viability, T/C [4]: 104% | viability, T/C [5]: 110% | viability, T/C [6]: 82.9% | viability, T/C [7]: 79.3% | viability, T/C [8]: 91.4% | viability, T/C [9]: 90.7% | viability, T/C [10]: 92.2% | viability, T/C [11]: 86.7% | viability, T/C [12]: 91.5% | viability, T/C [13]: 89.2% | viability, T/C [14]: 106% | viability, T/C [15]: 80.2% | viability, T/C [16]: 93.3% | viability, T/C [17]: 104% | viability, T/C [18]: 82.6% | viability, T/C [19]: 106% | viability, T/C [20]: 91.3% | viability, T/C [21]: 93.3% | viability, T/C [22]: 84.6% | viability, T/C [23]: 103% | viability, T/C [24]: 101% | viability, T/C [25]: 82.7% | viability, T/C [26]: 103% | viability, T/C [27]: 112% | viability, T/C [28]: 95.1% | viability, T/C [29]: 115% | viability, T/C [30]: 106% | viability, T/C [31]: 91.3% | viability, T/C [32]: 96.8% | viability, T/C [33]: 98.4% | viability, T/C [34]: 94.7% | viability, T/C [35]: 90.9% | viability, T/C [36]: 96.3%

Cc1cccc(N(C)C(=O)C2C(O)CCN2c2nc(C)cc(C(F)(F)F)c2C#N)c1 (stereo unspecified) + Cc1[nH]c2ccc(F)cc2c1-c1nc2c3cccnc3c3ncccc3c2[nH]1
IC50 (second compound 0.0316 µM): > 10 µM | IC50 (second compound 0.1 µM): > 10 µM | IC50 (second compound 0.316 µM): > 10 µM | IC50 (second compound 1 µM): > 10 µM | IC50 (second compound 3.16 µM): > 10 µM | IC50 (second compound 10 µM): > 10 µM | viability, T/C [1]: 104% | viability, T/C [2]: 104% | viability, T/C [3]: 112% | viability, T/C [4]: 90% | viability, T/C [5]: 82.1% | viability, T/C [6]: 90.6% | viability, T/C [7]: 86.7% | viability, T/C [8]: 95.2% | viability, T/C [9]: 92.1% | viability, T/C [10]: 77.5% | viability, T/C [11]: 90.4% | viability, T/C [12]: 112% | viability, T/C [13]: 114% | viability, T/C [14]: 114% | viability, T/C [15]: 100% | viability, T/C [16]: 88.5% | viability, T/C [17]: 137% | viability, T/C [18]: 82.8% | viability, T/C [19]: 109% | viability, T/C [20]: 85.7% | viability, T/C [21]: 83.9% | viability, T/C [22]: 109% | viability, T/C [23]: 103% | viability, T/C [24]: 102% | viability, T/C [25]: 91.3% | viability, T/C [26]: 122% | viability, T/C [27]: 91.4% | viability, T/C [28]: 98.6% | viability, T/C [29]: 116% | viability, T/C [30]: 94.5% | viability, T/C [31]: 93.8% | viability, T/C [32]: 116% | viability, T/C [33]: 103% | viability, T/C [34]: 89.5% | viability, T/C [35]: 84.9% | viability, T/C [36]: 84.1%
